Reference: patent publication US11666558B2, “Methods of treating intraocular pressure with activators of Tie-2” (EyePoint Pharmaceuticals, Inc., priority 2015, dated 2023)
Values joined by “and” are separate entries in the source; they are usually repeats but may differ in a detail not shown here. Equal values may be shown once. Where a name gives a salt, the structure may show the parent alone.

Columns and labels:
[1] = system: intraocular pressure; assay: Intraocular pressure (pneumotonometer) after repeated topical and subcutaneous administration in normotensive rabbits; assay type: in vivo, New Zealand White rabbits
Method: To measure the tolerability and effect of Compound 1 (sodium salt) on intraocular pressure following repeated topical and subcutaneous administration, normotensive New Zealand White rabbits were treated with Compound 1 (sodium salt). Animals were acclimated 1 to 2 times per day to the intraocular pressure (IOP) measurement procedures prior to initiation of the study to determine baseline IOP levels. IOP acclimation was performed in the two weeks prior to study start for a total of 5 days. Animals with unacceptable IOP values were excluded from the study. Prior to taking all IOP measurements, 1 to 2 drops of a 0.5% proparacaine solution were applied to the eye as a topical anesthetic. OP measurements were performed with a pneumotonometer. Test and control formulations were administered to the animals once or twice daily topically into both eyes or subcutaneously starting on Day 1 according to TABLE 20 and TABLE 21 below. PM dosing, where applicable, was performed ˜8 hours after AM dosing. IOP measurements were performed twice (AM and PM) at baseline (prior to the start of dosing), twice (AM and PM) on Days 1 and 7, and once daily (AM) on Days 2-6 and Day 8. Prior to taking all IOP measurements, 1 to 2 drops of a 0.5% proparacaine solution were applied to the eye as a topical anesthetic. IOP measurements were performed with a pneumotonometer. AM IOP measurements were performed 2 hours after AM dosing; the only exceptions were Day 8 AM measurements, which were performed 24 hours after the final dose. PM IOP measurements were performed ˜5 hours (baseline and Day 1) or ˜4 hours (Day 7) after AM IOP measurements, prior to PM dosing, with at least 15 minutes elapsing between anesthetic application for PM IOP measurements and PM dosing. The final round of slit-lamp examinations was performed on Day 8.

[2] = In vitro diffusion across rabbit cornea and sclera in Franz cell; assay type: in vitro ADME; settings: 1.5% of the sodium salt with 5% HPβCD in 50:50 D5W:sterile water
[3] = system: intraocular pressure; assay: Intraocular pressure change from baseline, Compound 1 BID at varying doses, 28 Day EOT (FIG. 1); assay type: in vivo, human; settings: doses greater than 15 mg BID, patients with diabetic macular edema
Method: The difference in IOP was determined at the end of the trial, which was 28 days after treatment began (28 Day EOT). Changes in IOP were determined both in the study eye and the fellow eye.

[4] = Group 2, 0.45 mg/eye topical BID, Day 1, AM, OS
[5] = Group 2, 0.45 mg/eye topical BID, Day 1, PM, OD
[6] = Group 2, 0.45 mg/eye topical BID, Day 2, AM, OD
[7] = Group 2, 0.45 mg/eye topical BID, Day 2, AM, OS
[8] = Group 2, 0.45 mg/eye topical BID, Day 3, AM, OD
[9] = Group 2, 0.45 mg/eye topical BID, Day 3, AM, OS
[10] = Group 2, 0.45 mg/eye topical BID, Day 4, AM, OD
[11] = Group 2, 0.45 mg/eye topical BID, Day 4, AM, OS
[12] = Group 2, 0.45 mg/eye topical BID, Day 5, AM, OD
[13] = Group 3, 1.2 mg/eye topical BID, Day 1, AM, OD
[14] = Group 3, 1.2 mg/eye topical BID, Day 1, AM, OS
[15] = Group 3, 1.2 mg/eye topical BID, Day 1, PM, OD
[16] = Group 3, 1.2 mg/eye topical BID, Day 2, AM, OS
[17] = Group 3, 1.2 mg/eye topical BID, Day 3, AM, OD
[18] = Group 3, 1.2 mg/eye topical BID, Day 3, AM, OS
[19] = Group 3, 1.2 mg/eye topical BID, Day 4, AM, OD
[20] = Group 3, 1.2 mg/eye topical BID, Day 4, AM, OS
[21] = Group 3, 1.2 mg/eye topical BID, Day 5, AM, OS
[22] = Group 4, 1.2 mg/eye topical QD, Day 1, AM, OD
[23] = Group 4, 1.2 mg/eye topical QD, Day 2, AM, OD
[24] = Group 4, 1.2 mg/eye topical QD, Day 5, AM, OD

COC(=O)N[C@@H](Cc1ccccc1)C(=O)N[C@@H](Cc1ccc(NS(=O)(=O)O)cc1)c1csc(-c2cccs2)n1 [Compound 1 sodium salt]
Intraocular pressure (IOP), individual animal ([1]; Group 2, 0.45 mg/eye topical BID, Day 1, AM, OD): 20.3 and 23.7 and 24.0 and 20.7 and 21.7
Intraocular pressure (IOP), group Average [1, 4]: 23.3
Intraocular pressure (IOP), individual animal [1, 4]: 20.7 and 25.2 and 23.3
Intraocular pressure (IOP), group Average [1, 5]: 25.5
Intraocular pressure (IOP), individual animal [1, 5]: 24.8 and 22.0
Intraocular pressure (IOP), individual animal ([1]; Group 2, 0.45 mg/eye topical BID, Day 1, PM, OS): 25.3
Intraocular pressure (IOP), group Average [1, 6]: 21.9
Intraocular pressure (IOP), individual animal [1, 6]: 22.0 and 22.7 and 25.0
Intraocular pressure (IOP), group Average [1, 7]: 22.2
Intraocular pressure (IOP), individual animal [1, 7]: 22.3 and 24.3
Intraocular pressure (IOP), group Average [1, 8]: 24.0
Intraocular pressure (IOP), individual animal [1, 8]: 25.0 and 24.2 and 26.0 and 23.8
Intraocular pressure (IOP), group Average [1, 9]: 24.5
Intraocular pressure (IOP), individual animal [1, 9]: 25.3 and 23.5 and 26.0 and 23.0
Intraocular pressure (IOP), group Average [1, 10]: 23.9
Intraocular pressure (IOP), individual animal [1, 10]: 23.8 and 22.0 and 26.7 and 25.7
Intraocular pressure (IOP), group Average [1, 11]: 24.3
Intraocular pressure (IOP), individual animal [1, 11]: 23.0 and 22.7 and 26.3 and 23.5 and 26.2
Intraocular pressure (IOP), group Average [1, 12]: 25.2
Intraocular pressure (IOP), individual animal [1, 12]: 22.8 and 28.0 and 20.7 and 25.7
Intraocular pressure (IOP), individual animal ([1]; Group 2, 0.45 mg/eye topical BID, Day 5, AM, OS): 25.0 and 28.0 and 24.2 and 26.3
Intraocular pressure (IOP), group Average ([1]; Group 2, 0.45 mg/eye topical BID, Day 6, AM, OD): 25.5
Intraocular pressure (IOP), group Average ([1]; Group 2, 0.45 mg/eye topical BID, Day 7, AM, OD): 23.7
Intraocular pressure (IOP), group Average ([1]; Group 2, 0.45 mg/eye topical BID, Day 7, AM, OS): 24.5
Intraocular pressure (IOP), group Average [1, 13]: 22.0
Intraocular pressure (IOP), individual animal [1, 13]: 23.2 and 24.0 and 20.2
Intraocular pressure (IOP), group Average [1, 14]: 23.2
Intraocular pressure (IOP), individual animal [1, 14]: 23.8 and 23.0 (2×)
Intraocular pressure (IOP), group Average [1, 15]: 24.1
Intraocular pressure (IOP), individual animal [1, 15]: 24.7 and 25.2
Intraocular pressure (IOP), individual animal ([1]; Group 3, 1.2 mg/eye topical BID, Day 1, PM, OS): 24.5 (2×) and 23.7 and 25.0
Intraocular pressure (IOP), individual animal ([1]; Group 3, 1.2 mg/eye topical BID, Day 2, AM, OD): 17.5 and 25.5
Intraocular pressure (IOP), group Average [1, 16]: 21.2
Intraocular pressure (IOP), individual animal [1, 16]: 20.2 and 24.0 and 24.5
Intraocular pressure (IOP), group Average [1, 17]: 20.7
Intraocular pressure (IOP), individual animal [1, 17]: 20.0 and 23.0 and 22.2
Intraocular pressure (IOP), group Average [1, 18]: 21.2
Intraocular pressure (IOP), individual animal [1, 18]: 20.0 and 22.7 and 23.0
Intraocular pressure (IOP), group Average [1, 19]: 22.8
Intraocular pressure (IOP), individual animal [1, 19]: 23.2 and 24.8 and 22.2
Intraocular pressure (IOP), group Average [1, 20]: 23.2
Intraocular pressure (IOP), individual animal [1, 20]: 23.3 and 24.2 and 24.5 and 22.3
Intraocular pressure (IOP), individual animal ([1]; Group 3, 1.2 mg/eye topical BID, Day 5, AM, OD): 21.5 and 23.7
Intraocular pressure (IOP), group Average [1, 21]: 22.0
Intraocular pressure (IOP), individual animal [1, 21]: 22.3 and 23.5
Intraocular pressure (IOP), group Average ([1]; Group 3, 1.2 mg/eye topical BID, Day 6, AM, OS): 24.7
Intraocular pressure (IOP), group Average ([1]; Group 3, 1.2 mg/eye topical BID, Day 7, AM, OS): 22.0
Intraocular pressure (IOP), group Average ([1]; Group 3, 1.2 mg/eye topical BID, Day 7, PM, OD): 23.7
IOP values compared to Group 1 (Vehicle) ([1]; Group 3, 1.2 mg/eye topical BID, over the course of dosing): lower IOP values
Intraocular pressure (IOP), group Average [1, 22]: 21.2
Intraocular pressure (IOP), individual animal [1, 22]: 22.0 and 20.2
Intraocular pressure (IOP), individual animal ([1]; Group 4, 1.2 mg/eye topical QD, Day 1, AM, OS): 22.0 and 23.3 and 21.2
Intraocular pressure (IOP), individual animal ([1]; Group 4, 1.2 mg/eye topical QD, Day 1, PM, OD): 21.3 and 24.0
Intraocular pressure (IOP), individual animal ([1]; Group 4, 1.2 mg/eye topical QD, Day 1, PM, OS): 22.5 and 25.5
Intraocular pressure (IOP), group Average [1, 23]: 20.0
Intraocular pressure (IOP), individual animal [1, 23]: 20.0 and 20.3
Intraocular pressure (IOP), individual animal ([1]; Group 4, 1.2 mg/eye topical QD, Day 2, AM, OS): 21.0
Intraocular pressure (IOP), individual animal ([1]; Group 4, 1.2 mg/eye topical QD, Day 3, AM, OD): 23.5 and 21.0
Intraocular pressure (IOP), individual animal ([1]; Group 4, 1.2 mg/eye topical QD, Day 3, AM, OS): 20.0 and 21.2
Intraocular pressure (IOP), individual animal ([1]; Group 4, 1.2 mg/eye topical QD, Day 4, AM, OD): 21.5 and 22.2 and 20.7
Intraocular pressure (IOP), individual animal ([1]; Group 4, 1.2 mg/eye topical QD, Day 4, AM, OS): 20.0 and 24.3 and 23.5
Intraocular pressure (IOP), group Average [1, 24]: 21.0
Intraocular pressure (IOP), individual animal [1, 24]: 23.8
Intraocular pressure (IOP), individual animal ([1]; Group 4, 1.2 mg/eye topical QD, Day 5, AM, OS): 22.7 and 22.0
Intraocular pressure (IOP), group Average ([1]; Group 4, 1.2 mg/eye topical QD, Day 7, AM, OS): 23.0
IOP values compared to Group 1 (Vehicle) ([1]; Group 4, 1.2 mg/eye topical QD, over the course of dosing): lower IOP values
IOP values compared to Group 1 (Vehicle) ([1]; Group 5, 10 mg/kg subcutaneous BID): Lower IOP values compared to Group 1 were also seen in the early part of the study
Intraocular pressure (IOP), group Average ([1]; Group 5, 10 mg/kg subcutaneous BID, Day 2, AM, OD): 21.5
Intraocular pressure (IOP), group Average ([1]; Group 5, 10 mg/kg subcutaneous BID, Day 3, AM, OD): 20.7
Intraocular pressure (IOP), group Average ([1]; Group 5, 10 mg/kg subcutaneous BID, Day 3, AM, OS): 21.3
Intraocular pressure (IOP), group Average ([1]; Group 5, 10 mg/kg subcutaneous BID, Day 4, AM, OD): 21.9
Intraocular pressure (IOP), group Average ([1]; Group 5, 10 mg/kg subcutaneous BID, Day 6, AM, OD): 24.5
Intraocular pressure (IOP), group Average ([1]; Group 5, 10 mg/kg subcutaneous BID, Day 6, AM, OS): 25.0
Intraocular pressure (IOP), group Average ([1]; Group 5, 10 mg/kg subcutaneous BID, Day 7, AM, OS): 23.9
Intraocular pressure (IOP), group Average ([1]; Group 5, 10 mg/kg subcutaneous BID, Day 7, PM, OD): 24.1
Intraocular pressure (IOP), group Average ([1]; Group 5, 10 mg/kg subcutaneous BID, Day 8, AM, OS): 24.0
apparent reduction in intraocular pressure values ([1]; Groups 3 and 4 (1.2 mg/eye topical BID, QD), Day 7 and Day 8 (24 hours after the end of dosing)): persisted
effect on intraocular pressure ([1]; topically administered, 1.2 mg/eye dose, QD or BID): observed to reduce intraocular pressure

COC(=O)N[C@@H](Cc1ccccc1)C(=O)N[C@@H](Cc1ccc(NS(=O)(=O)O)cc1)c1csc(-c2cccs2)n1 [Compound 1]
diffusion across rabbit cornea and sclera [2]: substantial diffusion
intraocular pressure (IOP) relative to pre-treatment baseline [3]: decreased IOP
